“Also recorded” adds a separate entry of the source. Where two headings read alike, the source gives them in different places.
Key:
[1] = test system: Cyprinus carpio pituitary cells; test: gonadotropin release from carp pituitaries in response to murrel GnRH I and II; type: cell-based; conditions: 2 μg GnRH fractions
murrel pituitary cells = test: GtH release from murrel pituitary cell incubations, GtH measured by RIA; type: cell-based, Indian Murrel; conditions: for GtH released: Table 4, 2 μg GnRH fractions, mean ± SEM of five experiments, species of cells not given; for increase gonadotropin release: fold increase of gonadotropin release
Method: Meanwhile Jamaluddin et al, (Gen comp Endocrinology May 1989; 74(2): 190–8) of applicants laboratory developed a very dependable GnRH bioassay. Basic principle of this bioassay is to get the release of GTH from murrel primary pituitary cell culture and determine the amount of GTH released by GTH-RIA. […]
These three acetone fractions were extracted with petroleum ether (40–60° C.) to remove acetone, lipids and other hydrophobic substances. The final precipitates were centrifuged at 8,000 g for 15 min at 4° C. and the residues were stored at −80° C. until further use.

[2] = test system: Cirrhinus mrigala pituitary cells; test: gonadotropin release from carp pituitaries in response to murrel GnRH I and II; type: cell-based; conditions: 2 μg GnRH fractions
Text: (§1) Meanwhile Jamaluddin et al, (Gen comp Endocrinology May 1989; 74(2): 190–8) of applicants laboratory developed a very dependable GnRH bioassay. Basic principle of this bioassay is to get the release of GTH from murrel primary pituitary cell culture and determine the amount of GTH released by GTH-RIA. […] Moreover, these two GnRHs act almost equally in different species of carp indicating no species barrier (As shown below in Table 3).

[3] = test system: Catla catla pituitary cells; test: as above; type: cell-based; conditions: 2 μg GnRH fractions
Text: as §1

Substance | GtH II released [1] [ng/6 × 10^4 cells] | GnRH activity on the basis of GTH release from in vitro pituitary cell culture (murrel pituitary cells) | GtH released (murrel pituitary cells) [ng/6 × 10^4 cells] | increase gonadotropin release (murrel pituitary cells) | GnRH activity on the basis of GTH release from in vitro pituitary cell culture (murrel pituitary cells; listed as QRP H) | GtH II released [2] [ng/6 × 10^4 cells] | GtH II released [3] [ng/6 × 10^4 cells] | GnRH activity on the basis of GTH release from in vitro pituitary cell culture (murrel pituitary cells; listed as SRP H)
QHWSAWRLPG (channa punctatus) [muGnRH I] | 73.8 ± 2.51 | highly active | 73.3 ± 2.2 | about 30 times | GnRH was found to be located | 72.0 ± 2.13 | 74.5 ± 2.32 | –
QHWSWGILPG (channa punctatus) [muGnRH II] | 81.7 ± 3.12 | more active gonadotropin releasing hormone than muGnRH I; also recorded: highly active; also recorded: slightly more active | 79.2 ± 3.12 | about 35 times | – | 80.1 ± 2.61 | 82.6 ± 3.02 | GnRH was found to be located
mammalian GnRH: mammalian gonadotropin releasing hormone decapeptide, comparator (QHWSYGLRPG; Gonadoliberin-1; UniProt P01148 24-33, looked up) [reference compound] | – | – | 49.9 ± 2.02 | – | – | – | – | –
des-Gly^10,[D-Ala^6]-LHRH [GnRH superactive analogue, reference compound] | – | – | 68.0 ± 2.32 | – | – | – | – | –
